Laboratory results published in patent US20250093329A1, “SCREENING OF COMPOUNDS” (THE UNIVERSITY OF TULSA, priority 2022, published 2025).
“Also recorded” adds a separate entry of the source.

System: each cell line tested
Test: ATP levels by CellTiter-Glo, all cell lines of Table 1 taken together
Type: cell-based
Settings: Table 1 cell lines
From the text: A wide variety of ATP luminescing detection reagents are available commercially. So long as the reagent produces a luminescence in the presence of ATP, the reagent will be suitable for use in the present method. Suitable reagents include but are not limited to any ATP dependent luciferase such as but not limited to firefly luciferase, other modified luciferase based reagents, i.e. luciferase derivatives. According to the rapid method for determining the anti-cancer activity of a compound, a sample of living cells is distributed across a number of testing wells. Typically, 96-well plates are used; however, the number of wells is not critical to the current method. When using a 96-well plate the number of living cells will commonly be about 20,000. […] The sample wells contain a cell growth medium to promote cell health and growth and an additive to prevent bacterial contamination of the wells. One common example of the cell growth medium is DMEM with 10% FBS as described above. One example of the additive to prevent bacterial contamination is a solution of penicillin G and streptomycin referred to commonly as Pen-Strep. The Pen-Strep solution typically contains 5000 units of penicillin G and 5000 micrograms of streptomycin. Thus, the rapid determination of anti-cancer compounds can be carried out using the following method. • The desired number of cells are distributed in a 96-well plate containing 100 μL DMEM plus 10% FBS with optional Pen-Strep. • After 24 hours, cells are treated with the compound of interest or a 5% solution of dimethyl sulfoxide (DMSO) in water as a control. • The time period for exposure to the compound of interest and the DMSO control will vary depending on the luminescing detection reagent. However, when using a commercially available reagent such as resazurin (CellTiter Blue commercially available from Promega) or luciferase or a luciferase derivative (CellTiter Glo commercially available from Promega) the time period can be readily determined with reference to literature from the commercial source. Other luminescing detection agents can also be used with minimal experimentation to determine the desired compound exposure time. • Upon completion of the time period for exposure to the compound of interest or the DMSO, 10 μL of the luminescing detection reagent is added and the cells are lysed by a detergent added along with the luminescing detection reagent. • When the reagent is resazurin, as found in CellTiter-Blue the time period for exposure to the compound of interest and the DMSO will be about 24 hours. • When the reagent is luciferase or a luciferase derivative as found in CellTiter-Glo the time period for exposure to the compound of interest and the DMSO will be about 30 minutes to four hours. • The luminescing detection reagent is added over a period of time. • When using resazurin, the time period for the addition of the 10 μl volume takes place over a period of about one to four hours. • When using luciferase or a luciferase derivative, the time period is about 3 minutes to about 7 minutes, typically about 5 minutes. • During the time period of addition of the luminescing detection reagent the resulting luminescence is measured using conventional methods and devices. […] If the compound of interest deactivates the cell, then the cell produces less or no ATP. As a result, the cells in the well treated with the compound of interest will have a lower luminescence value as compared to the cells in wells treated with DMSO. • The value for the cells treated with the compound of interest is reported as a “percent of control” (POC) value. The determination of POC is calculated by dividing the averaged response from duplicate wells containing the cells as treated with the compound of interest by the average response of duplicate control wells which contain only cells and DMSO (in other words, a blank control experiment). […]

Q: Which “reduction in luminescence (reduced ATP) across the cell lines, compound alone” value (100 μM compound alone) does the source give for O=S(=O)(NCc1c[nH]c2ccccc12)c1ccc(Cl)cc1 [Compound 2, N-[(1H-indol-3-yl)methyl]-4-chlorobenzenesulfonamide] here?
A: Its value is “reduction in luminescence”.

Q: And the “effectiveness across the cell lines, with 2-DG” value (100 μM compound with 2-DG)?
A: The value was “effectiveness against each cell line; also recorded: remarkable effectiveness”.
